“And” between values parts separate entries of the source, which are not always exact repeats. Equal values may be shown once.
Experiments:
[1] = biological target: T1, UGT1A1 (Homo sapiens, UniProt P22309); experiment: Inhibition of raloxifene glucuronidation by recombinant UGT1A1 Supersomes; settings: for Inhibition of raloxifene glucuronidation, G1, UGT1A1 / Inhibition of raloxifene glucuronidation, G2, UGT1A1: raloxifene 50 μM, 250 μg/ml Supersomes, 1 mM UDPGA, 15 min; for % of control metabolism, raloxifene G1 / % of control metabolism, raloxifene G2: UGT1A1
T1 sequence (P22309 26-533): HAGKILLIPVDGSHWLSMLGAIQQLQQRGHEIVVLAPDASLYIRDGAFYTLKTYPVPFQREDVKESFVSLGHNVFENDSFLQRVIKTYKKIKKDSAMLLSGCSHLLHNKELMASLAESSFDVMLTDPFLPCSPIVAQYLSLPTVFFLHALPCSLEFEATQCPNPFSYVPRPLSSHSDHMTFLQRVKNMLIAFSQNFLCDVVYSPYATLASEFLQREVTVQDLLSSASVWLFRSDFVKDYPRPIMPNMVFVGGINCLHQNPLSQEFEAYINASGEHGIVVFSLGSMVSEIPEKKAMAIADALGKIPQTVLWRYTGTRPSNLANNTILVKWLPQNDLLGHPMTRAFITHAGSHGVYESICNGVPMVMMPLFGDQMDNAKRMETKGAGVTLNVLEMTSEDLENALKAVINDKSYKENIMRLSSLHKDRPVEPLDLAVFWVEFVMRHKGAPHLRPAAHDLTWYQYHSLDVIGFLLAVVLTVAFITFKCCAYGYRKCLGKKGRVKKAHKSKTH
Method: Compounds were eluted using a binary solvent gradient system. Solvent A was water brought to pH 8 with NH4OH. Solvent B was methanol. Solvent flow rate was 1 ml/min and the column temperature was maintained at 50° C. Detection was at 280 nm. […] The system was then returned to the initial conditions and equilibrated for 3 min.

[2] = biological target: T2, UGT enzymes of human liver microsomes (Homo sapiens, UniProt P16662); experiment: Inhibition of zidovudine glucuronidation in human liver microsomes; assay type: biochemical; settings: liver lot 062101
T2 construct: residual metabolism (percentage of control), zidovudine glucuronidation; other: liver lot 062101; residual metabolism (percentage of control), zidovudine glucuronidation; residual metabolism (percentage of control)
T2 sequence (P16662 1-529): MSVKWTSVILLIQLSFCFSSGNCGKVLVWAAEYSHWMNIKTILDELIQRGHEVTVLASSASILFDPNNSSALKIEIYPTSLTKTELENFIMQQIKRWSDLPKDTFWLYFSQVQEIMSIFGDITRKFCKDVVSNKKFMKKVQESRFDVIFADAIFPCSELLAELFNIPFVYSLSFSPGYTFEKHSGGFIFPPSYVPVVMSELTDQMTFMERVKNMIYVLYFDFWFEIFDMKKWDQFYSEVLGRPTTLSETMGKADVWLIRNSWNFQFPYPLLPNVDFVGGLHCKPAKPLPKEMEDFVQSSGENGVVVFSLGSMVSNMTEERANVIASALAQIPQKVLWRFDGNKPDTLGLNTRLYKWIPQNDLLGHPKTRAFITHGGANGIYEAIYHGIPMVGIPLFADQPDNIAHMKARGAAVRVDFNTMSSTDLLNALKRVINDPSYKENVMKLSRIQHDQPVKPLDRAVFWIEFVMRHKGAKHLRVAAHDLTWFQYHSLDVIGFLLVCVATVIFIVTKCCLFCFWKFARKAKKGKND
Method: Compounds were eluted using a binary solvent gradient system where solvent A was dilute phosphoric acid (pH 3) and solvent B was acetonitrile.
Standardized incubations utilized 500 μM zidovudine substrate, 1 mg/ml microsomal protein, 5 mM UDPGA and a 30 min incubation time. […] Int.

[3] = system: UGT enzymes of pooled human jejunum microsomes; experiment: Inhibition of zidovudine glucuronidation in pooled human jejunum microsomes; assay type: biochemical; settings: inhibitor 100 μM
Method: Increasing the microsomal protein concentration to 1 mg/ml and extending the incubation time to 60 min provided meaningful metabolite levels for inhibition studies.

[4] = system: UGT enzymes of pooled human jejunum microsomes; experiment: Inhibition of 2ME2 glucuronidation (MG1) in pooled human jejunum microsomes; assay type: biochemical; settings: jejunum HJ61, 2ME2 50 μM
From the text: (§1) Compounds were eluted using a binary solvent gradient system where solvent A was dilute phosphoric acid (pH 3) and solvent B was 80:20 acetonitrile-methanol. […] Detection was at 280 nm.

[5] = system: T3, UGT enzymes of human liver microsomes; experiment: Inhibition of 2ME2 glucuronidation (MG1, MG2) in human liver microsomes; assay type: biochemical; settings: liver 062101, 2ME2 50 μM
T3 construct: other: liver 062101
From the text: as §1

[6] = system: T4, UGT enzymes of human liver microsomes; experiment: Inhibition of 7-HFC glucuronidation in human liver microsomes; assay type: biochemical; settings: inhibitor 500 μM
T4 construct: percentage of control metabolism, 7-HFC glucuronidation; percentage of control metabolism, 7-HFC glucuronidation

[7] = system: UGT enzymes of human liver microsomes; experiment: Inhibition of raloxifene glucuronidation (G1, G2) in human liver microsomes; assay type: biochemical; settings: raloxifene 50 μM; for % of control metabolism (SD, n = 3), raloxifene glucuronide G1 / % of control metabolism (SD, n = 3), raloxifene glucuronide G2: human liver microsomes 250 μg/ml, 15 min
From the text: Compounds were eluted using a binary solvent gradient system. […] Solvent B was methanol. […] Detection was at 280 nm.

[8] = inhibitor column headed only "μM" (between 25 μM and 5 μM)

C#C[C@]1(O)CC[C@H]2[C@@H]3CCc4cc(O)ccc4[C@H]3CC[C@@]21C [17-α-Ethinylestradiol, 17-α-ethinylestradiol, reference compound]
Inhibition of raloxifene glucuronidation, G1, UGT1A1 ([1]; inhibitor 25 μM): 53 (0) | Inhibition of raloxifene glucuronidation, G1, UGT1A1 ([1]; inhibitor 50 μM): 33 (1) | Inhibition of raloxifene glucuronidation, G1, UGT1A1 [1, 8]: 81 (0) | Inhibition of raloxifene glucuronidation, G2, UGT1A1 ([1]; inhibitor 25 μM): 72 (1) | Inhibition of raloxifene glucuronidation, G2, UGT1A1 ([1]; inhibitor 50 μM): 58 (3) | Inhibition of raloxifene glucuronidation, G2, UGT1A1 [1, 8]: 91 (1) | % of control metabolism, raloxifene G1 ([1]; inhibitor 25 μM): 53 (0) % | % of control metabolism, raloxifene G2 ([1]; inhibitor 25 μM): 72 (1) % | % of control metabolism, raloxifene G1 ([1]; inhibitor 50 μM): 33 (1) % | % of control metabolism, raloxifene G2 ([1]; inhibitor 50 μM): 58 (3) % | residual metabolism (percentage of control), zidovudine glucuronidation ([2]; inhibitor 50 μM): 54 (2) % | residual metabolism (percentage of control), zidovudine glucuronidation ([2]; inhibitor 100 μM): 40 (2) % | residual metabolism (percentage of control), zidovudine glucuronidation ([2]; inhibitor 200 μM): 24 (1) % | residual metabolism (percentage of control), zidovudine glucuronidation ([2]; inhibitor 500 μM): 13 (1) % and 10 (1) % | residual metabolism (percentage of control), zidovudine [3]: 30 (1) % | residual metabolism (% of control), 2ME2 MG1 ([4]; inhibitor 50 μM): 109 (5) % | residual metabolism (% of control), 2ME2 MG1 ([4]; inhibitor 100 μM): 99 (2) % | residual metabolism (% of control), 2ME2 MG1 ([5]; inhibitor 25 μM): 74 (1) % | residual metabolism (% of control), 2ME2 MG2 ([5]; inhibitor 25 μM): 62 (1) % | residual metabolism (% of control), 2ME2 MG1 ([5]; inhibitor 50 μM): 64 (2) % | residual metabolism (% of control), 2ME2 MG2 ([5]; inhibitor 50 μM): 41 (3) % | residual metabolism (% of control), 2ME2 MG1 ([5]; inhibitor 100 μM): 48 (0) % | residual metabolism (% of control), 2ME2 MG2 ([5]; inhibitor 100 μM): 4 (0) % | percentage of control metabolism, 7-HFC glucuronidation [6]: 72 (1) % | % of control metabolism (SD, n = 3), 7-HFC glucuronidation ([6]; 7-HFC 50 μM, human liver microsomes 100 μg/ml, 15 min): 72 (1) % | % of control metabolism (SD, n = 3), raloxifene glucuronide G1 ([7]; inhibitor 25 μM): 66 (3) % | % of control metabolism (SD, n = 3), raloxifene glucuronide G1 ([7]; inhibitor 50 μM): 42 (2) % | % of control metabolism (SD, n = 3), raloxifene glucuronide G1 ([7]; inhibitor 100 μM): 31 (2) % | % of control metabolism (SD, n = 3), raloxifene glucuronide G1 ([7]; inhibitor 500 μM): 2 (0) % | % of control metabolism (SD, n = 3), raloxifene glucuronide G2 ([7]; inhibitor 25 μM): 80 (3) % | % of control metabolism (SD, n = 3), raloxifene glucuronide G2 ([7]; inhibitor 50 μM): 60 (2) % | % of control metabolism (SD, n = 3), raloxifene glucuronide G2 ([7]; inhibitor 100 μM): 56 (3) % | % of control metabolism (SD, n = 3), raloxifene glucuronide G2 ([7]; inhibitor 500 μM): 6 (0) % | % of control metabolism, raloxifene G1 ([7]; inhibitor 25 μM): 66 (3) % | % of control metabolism, raloxifene G2 ([7]; inhibitor 25 μM): 80 (3) % | % of control metabolism, raloxifene G1 ([7]; inhibitor 50 μM): 42 (2) % | % of control metabolism, raloxifene G2 ([7]; inhibitor 50 μM): 60 (2) % | % of control metabolism, raloxifene G1 ([7]; inhibitor 100 μM): 31 (2) % | % of control metabolism, raloxifene G2 ([7]; inhibitor 100 μM): 56 (3) %
